Measurements taken from patent US20240308992A1 (Biopolar Youtang(Guangdong) Pharmaceutical Co., Ltd., priority 2021, published 2024).

Target: T1, Drak2 (Homo sapiens, UniProt O94768)
T1 sequence (O94768 1-372): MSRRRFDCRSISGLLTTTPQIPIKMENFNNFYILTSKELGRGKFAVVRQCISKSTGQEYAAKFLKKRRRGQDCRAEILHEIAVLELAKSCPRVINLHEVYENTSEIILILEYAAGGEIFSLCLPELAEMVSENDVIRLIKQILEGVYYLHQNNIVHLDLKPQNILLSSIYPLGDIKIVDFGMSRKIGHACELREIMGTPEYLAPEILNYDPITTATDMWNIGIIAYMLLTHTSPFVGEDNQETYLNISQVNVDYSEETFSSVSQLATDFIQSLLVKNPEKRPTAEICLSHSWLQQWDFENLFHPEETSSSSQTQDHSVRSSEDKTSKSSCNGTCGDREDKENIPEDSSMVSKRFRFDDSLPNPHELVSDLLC
Assay: Drak2 activity test, ADP-Glo kinase assay (Promega)
Assay type: biochemical
Conditions: inhibition of Drak2 kinase activity, 2 h room temperature, activity range classes, read-out: IC50_Drak2

Row | IC50 | SMILES
1 | 1000 to 10000 nM | CCCCC(=O)Nc1csc(-c2cncc(-c3cc(F)c(O)c(OC)c3)n2)c1 [Example A38, N-(5-(6-(3-fluoro-4-hydroxy-5-methoxyphenyl)pyrazin-2-yl)thiophen-3-yl)pentanamide]
2 | 101 to 1000 nM | CCCCC(=O)Nc1csc(-c2cncc(-c3ccc(-c4nc(=O)o[nH]4)c(OC)c3)n2)c1 [Example A39, N-(5-(6-(3-methoxy-4-(5-oxo-2,5-dihydro-1,2,4-oxadiazol-3-yl)phenyl)pyrazin-2-yl)thiophen-3-yl)pentanamide]
3 | 101 to 1000 nM | CCCCC(=O)Nc1csc(-c2cncc(-c3ccc(S(C)(=O)=O)cc3)n2)c1 [Example A40, N-(5-(6-(4-(methylsulfonyl)phenyl)pyrazin-2-yl)thiophen-3-yl)pentanamide]
4 | 101 to 1000 nM | CCCCC(=O)Nc1csc(-c2cncc(-c3ccc(F)c(O)c3)n2)c1 [Example A41, N-(5-(6-(4-fluoro-3-hydroxyphenyl)pyrazin-2-yl)thiophen-3-yl)pentanamide]
5 | 101 to 1000 nM | CCCCC(=O)Nc1csc(-c2cncc(-c3ccc(S(C)(=O)=O)c(OC)c3)n2)c1 [Example A42, N-(5-(6-(3-methoxy-4-(methylsulfonyl)phenyl)pyrazin-2-yl)thiophen-3-yl)pentanamide]
6 | 11 to 100 nM | COc1cc(-c2cncc(-c3cc(NC(=O)CC4CC4)cs3)n2)ccc1S(C)(=O)=O [Example A43, 2-cyclopropyl-N-(5-(6-(3-methoxy-4-(methylsulfonyl)phenyl)pyrazin-2-yl)thiophen-3-yl)acetamide]
7 | 11 to 100 nM | COc1cc(-c2cncc(-c3cc(NC(=O)CC4CCC4)cs3)n2)ccc1S(C)(=O)=O [Example A44, 2-cyclobutyl-N-(5-(6-(3-methoxy-4-(methylsulfonyl)phenyl)pyrazin-2-yl)thiophen-3-yl)acetamide]
8 | 1000 to 10000 nM | CCCCC(=O)Nc1cc(-c2cncc(-c3ccc(S(C)(=O)=O)c(OC)c3)n2)sc1C [Example A45, N-(5-(6-(3-methoxy-4-(methylsulfonyl)phenyl)pyrazin-2-yl)-2-methylthiophen-3-yl)pentanamide]
9 | 101 to 1000 nM | CCS(=O)(=O)c1ccc(-c2cncc(-c3cc(NC(=O)CC4CCC4)cs3)n2)cc1OC [Example A46, 2-cyclobutyl-N-(5-(6-(4-(ethylsulfonyl)-3-methoxyphenyl)pyrazin-2-yl)thiophen-3-yl)acetamide]
10 | 101 to 1000 nM | COc1cc(-c2cncc(-c3cc(NC(=O)CC4CCC4)cs3)n2)ccc1[S+](C)[O-] (stereo not drawn) [Example A47, 2-cyclobutyl-N-(5-(6-(3-methoxy-4-(methylsulfinyl)phenyl)pyrazin-2-yl)thiophen-3-yl)acetamide]
11 | 101 to 1000 nM | COc1cc(-c2cncc(-c3cc(NC(=O)CC4CCC4)cs3)n2)ccc1S(=O)(=O)C1CCC1 [Example A48, 2-cyclobutyl-N-(5-(6-(4-(cyclobutylsulfonyl)-3-methoxyphenyl)pyrazin-2-yl)thiophen-3-yl)acetamide]
12 | 11 to 100 nM | Cn1ncc2ccc(-c3cncc(-c4cc(NC(=O)CC5CCC5)cs4)n3)cc21 [Example A49, 2-cyclobutyl-N-(5-(6-(1-methyl-1H-indazol-6-yl)pyrazin-2-yl)thiophen-3-yl)acetamide]
13 | 11 to 100 nM | CN1CCC(Cn2cc3ccc(-c4cncc(-c5cc(NC(=O)CC6CCC6)cs5)n4)cc3n2)CC1 [Example A50, 2-cyclobutyl-N-(5-(6-(2-((1-methylpiperidin-4-yl)methyl)-2H-indazol-6-yl)pyrazin-2-yl)thiophen-3-yl)acetamide]
14 | 101 to 1000 nM | Cc1nn(C)c2cc(-c3cncc(-c4cc(NC(=O)CC5CCC5)cs4)n3)ccc12 [Example A51, 2-cyclobutyl-N-(5-(6-(1,3-dimethyl-1H-indazol-6-yl)pyrazin-2-yl)thiophen-3-yl)acetamide]
15 | 11 to 100 nM | O=C(CC1CCC1)Nc1csc(-c2cncc(-c3ccc4cn[nH]c4c3)n2)c1 [Example A52, N-(5-(6-(1H-indazol-6-yl)pyrazin-2-yl)thiophen-3-yl)-2-cyclobutylacetamide]
16 | 101 to 1000 nM | CCCCC(=O)Nc1csc(-c2cncc(-c3ccc(C(=O)OC)c(OC)c3)n2)c1 [Example B1, Methyl 2-methoxy-4-(6-(4-pentanamidothiophen-2-yl)pyrazin-2-yl)benzoate]
17 | 11 to 100 nM | CCCCC(=O)Nc1csc(-c2cncc(-c3ccc(C(=O)O)c(OC)c3)n2)c1 [Example B2, 2-methoxy-4-(6-(4-pentanamidothiophen-2-yl)pyrazin-2-yl)benzoic acid]
18 | 101 to 1000 nM | CCCCC(=O)Nc1csc(-c2cncc(-c3ccc(C(N)=O)c(OC)c3)n2)c1 [Example B3, 2-methoxy-4-(6-(4-pentanamidothiophen-2-yl)pyrazin-2-yl)benzamide]

Row | IC50 | SMILES
19 | 11 to 100 nM | CCCCC(=O)Nc1csc(-c2cncc(-c3ccc(C(=O)Nc4nnn[nH]4)c(OC)c3)n2)c1 [Example B4, 2-methoxy-4-(6-(4-pentanamidothiophen-2-yl)pyrazin-2-yl)-N-(1H-tetrazol-5-yl)benzamide]
20 | 101 to 1000 nM | CCCCC(=O)Nc1csc(-c2cncc(-c3ccc(C(=O)Nc4ncc[nH]4)c(OC)c3)n2)c1 [Example B5, 2-methoxy-4-(6-(4-pentanamidothiophen-2-yl)pyrazin-2-yl)-N-(1H-imidazol-2-yl) benzamide]
21 | 101 to 1000 nM | COc1cc(-c2cncc(-c3cc(NC(=O)C4CCCCC4)cs3)n2)ccc1C(=O)O [Example B6, 4-(6-(4-(cyclohexanecarboxamido)thiophen-2-yl)pyrazin-2-yl)-2-methoxybenzoic acid]
22 | 101 to 1000 nM | CCCCC(=O)Nc1csc(-c2cncc(-c3ccc(C(=O)NS(=O)(=O)N(C)C)c(OC)c3)n2)c1 [Example B7, 2-methoxy-4-(6-(4-pentanamidothiophen-2-yl)pyrazin-2-yl)-N-(N,N-dimethylsulfamoyl)benzamide]
23 | 1000 to 10000 nM | CCCCC(=O)Nc1csc(-c2cncc(-c3ccc(C(=O)Nc4nccs4)c(OC)c3)n2)c1 [Example B8, 2-methoxy-4-(6-(4-pentanamidothiophen-2-yl)pyrazin-2-yl)-N-(thiazol-2-yl)benzamide]
24 | 101 to 1000 nM | CCCC(=O)Nc1csc(-c2cncc(-c3ccc(C(=O)Nc4nnn[nH]4)c(OC)c3)n2)c1 [Example B9, 2-methoxy-4-(6-(4-butyramidothiophen-2-yl)pyrazin-2-yl)-N-(1H-tetrazol-5-yl)benzamide]
25 | 101 to 1000 nM | COc1cc(-c2cncc(-c3cc(NC(C)=O)cs3)n2)ccc1C(=O)Nc1nnn[nH]1 [Example B10, 2-methoxy-4-(6-(4-acetamidothiophen-2-yl)pyrazin-2-yl)-N-(1H-tetrazol-5-yl)benzamide]
26 | 101 to 1000 nM | CCC(=O)Nc1csc(-c2cncc(-c3ccc(C(=O)Nc4nnn[nH]4)c(OC)c3)n2)c1 [Example B11, 2-methoxy-4-(6-(4-propionamidothiophen-2-yl)pyrazin-2-yl)-N-(1H-tetrazol-5-yl)benzamide]
27 | 101 to 1000 nM | COc1cc(-c2cncc(-c3cc(NC(=O)CC4CC4)cs3)n2)ccc1C(=O)Nc1nnn[nH]1 [Example B12, 2-methoxy-4-(6-(4-(2-cyclopropylacetamido)thiophen-2-yl)pyrazin-2-yl)-N-(1H-tetrazol-5-yl)benzamide]
28 | 101 to 1000 nM | COc1cc(-c2cncc(-c3cc(NC(=O)Cc4ccco4)cs3)n2)ccc1C(=O)Nc1nnn[nH]1 [Example B13, 2-methoxy-4-(6-(4-(2-(furan-2-yl)acetamido)thiophen-2-yl)pyrazin-2-yl)-N-(1H-tetrazol-5-yl)benzamide]
29 | 101 to 1000 nM | COc1cc(-c2cncc(-c3cc(NC(=O)CC4CCCCC4)cs3)n2)ccc1C(=O)Nc1nnn[nH]1 [Example B14, 2-methoxy-4-(6-(4-(2-cyclohexylacetamido)thiophen-2-yl)pyrazin-2-yl)-N-(1H-tetrazol-5-yl)benzamide]
30 | 11 to 100 nM | CCCCC(=O)Nc1csc(-c2cncc(-c3ccc(C(=O)Nc4nnnn4C)c(OC)c3)n2)c1 [Example B15, 2-methoxy-4-(6-(4-pentanamidothiophen-2-yl)pyrazin-2-yl)-N-(1-methyl-1H-tetrazol-5-yl)-benzamide]
31 | 101 to 1000 nM | CCCCCC(=O)Nc1csc(-c2cncc(-c3ccc(C(=O)Nc4nnn[nH]4)c(OC)c3)n2)c1 [Example B16, 2-methoxy-4-(6-(4-hexanamidothiophen-2-yl)pyrazin-2-yl)-N-(1H-tetrazol-5-yl)benzamide]
32 | 1000 to 10000 nM | CCCCCCC(=O)Nc1csc(-c2cncc(-c3ccc(C(=O)Nc4nnn[nH]4)c(OC)c3)n2)c1 [Example B17, 2-methoxy-4-(6-(4-heptanamidothiophen-2-yl)pyrazin-2-yl)-N-(1H-tetrazol-5-yl)benzamide]
33 | > 10000 nM | CCCCCCCC(=O)Nc1csc(-c2cncc(-c3ccc(C(=O)Nc4nnn[nH]4)c(OC)c3)n2)c1 [Example B18, 2-methoxy-4-(6-(4-octanamidothiophen-2-yl)pyrazin-2-yl)-N-(1H-tetrazol-5-yl)benzamide]
34 | > 10000 nM | CCCCCCCCC(=O)Nc1csc(-c2cncc(-c3ccc(C(=O)Nc4nnn[nH]4)c(OC)c3)n2)c1 [Example B19, 2-methoxy-4-(6-(4-nonanamidothiophen-2-yl)pyrazin-2-yl)-N-(1H-tetrazol-5-yl)benzamide]
35 | > 10000 nM | CCCCCCCCCC(=O)Nc1csc(-c2cncc(-c3ccc(C(=O)Nc4nnn[nH]4)c(OC)c3)n2)c1 [Example B20, 2-methoxy-4-(6-(4-decanamidothiophen-2-yl)pyrazin-2-yl)-N-(1H-tetrazol-5-yl)benzamide]
36 | > 10000 nM | CCCCCCCCCCC(=O)Nc1csc(-c2cncc(-c3ccc(C(=O)Nc4nnn[nH]4)c(OC)c3)n2)c1 [Example B21, 2-methoxy-4-(6-(4-undecanamidothiophen-2-yl)pyrazin-2-yl)-N-(1H-tetrazol-5-yl)benzamide]
